Test results published in article PMC6199744, “Development of Chemical Proteomics for the Folateome and Analysis of the Kinetoplastid Folateome” (ACS Infectious Diseases, 2018).
Like-named read-outs stand apart in the source and are kept apart here.

Columns and labels:
Type in all cases: binding
[1] = target: T1, HeLa cell extract proteins (Homo sapiens, UniProt P78371)
T1 construct: endogenous in cells; host or cells: HeLa cell extract
T1 sequence (P78371 1-535): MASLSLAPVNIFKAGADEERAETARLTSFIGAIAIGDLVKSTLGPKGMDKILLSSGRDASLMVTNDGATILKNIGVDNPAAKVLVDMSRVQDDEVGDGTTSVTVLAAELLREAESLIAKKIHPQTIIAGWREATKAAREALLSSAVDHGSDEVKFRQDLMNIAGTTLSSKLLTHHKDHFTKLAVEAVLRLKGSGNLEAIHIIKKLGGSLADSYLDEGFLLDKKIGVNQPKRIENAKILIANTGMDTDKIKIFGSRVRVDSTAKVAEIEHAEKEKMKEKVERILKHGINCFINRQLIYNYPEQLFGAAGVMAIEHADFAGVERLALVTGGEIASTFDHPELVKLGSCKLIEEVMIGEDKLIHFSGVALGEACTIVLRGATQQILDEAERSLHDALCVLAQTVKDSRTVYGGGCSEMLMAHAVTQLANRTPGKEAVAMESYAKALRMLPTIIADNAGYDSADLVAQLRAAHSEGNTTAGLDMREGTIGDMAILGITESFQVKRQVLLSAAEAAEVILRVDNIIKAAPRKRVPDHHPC

[2] = target: T2, HeLa cell extract proteins (Homo sapiens, UniProt Q16881)
T2 construct: endogenous in cells; host or cells: HeLa cell extract
T2 sequence (Q16881 1-649): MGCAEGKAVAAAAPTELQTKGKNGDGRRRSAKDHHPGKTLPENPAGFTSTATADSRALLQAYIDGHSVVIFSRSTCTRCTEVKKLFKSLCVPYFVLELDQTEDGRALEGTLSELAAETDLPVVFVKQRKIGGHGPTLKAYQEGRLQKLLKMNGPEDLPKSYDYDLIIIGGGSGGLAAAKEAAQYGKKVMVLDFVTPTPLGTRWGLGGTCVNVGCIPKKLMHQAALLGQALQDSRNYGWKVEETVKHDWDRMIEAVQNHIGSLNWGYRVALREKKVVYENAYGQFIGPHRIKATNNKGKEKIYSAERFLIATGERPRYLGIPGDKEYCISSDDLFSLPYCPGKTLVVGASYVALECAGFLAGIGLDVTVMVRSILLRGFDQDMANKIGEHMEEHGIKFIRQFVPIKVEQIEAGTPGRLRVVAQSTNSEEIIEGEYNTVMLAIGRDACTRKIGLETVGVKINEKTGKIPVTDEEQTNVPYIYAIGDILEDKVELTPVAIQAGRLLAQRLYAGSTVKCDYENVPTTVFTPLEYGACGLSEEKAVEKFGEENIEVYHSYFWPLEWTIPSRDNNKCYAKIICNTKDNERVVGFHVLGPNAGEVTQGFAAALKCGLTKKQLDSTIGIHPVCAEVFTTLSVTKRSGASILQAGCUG

[3] = target: T3, HeLa cell extract proteins (Homo sapiens, UniProt Q13155)
T3 construct: endogenous in cells; host or cells: HeLa cell extract
T3 sequence (Q13155 1-320): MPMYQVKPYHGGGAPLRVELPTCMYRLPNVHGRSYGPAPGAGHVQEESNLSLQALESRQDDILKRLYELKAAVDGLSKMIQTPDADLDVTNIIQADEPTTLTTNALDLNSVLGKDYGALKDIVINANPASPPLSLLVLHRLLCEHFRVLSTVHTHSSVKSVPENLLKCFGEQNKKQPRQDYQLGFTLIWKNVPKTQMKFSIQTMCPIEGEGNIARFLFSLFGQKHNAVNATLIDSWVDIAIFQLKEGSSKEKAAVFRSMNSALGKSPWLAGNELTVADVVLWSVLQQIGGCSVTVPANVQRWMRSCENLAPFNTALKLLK

[4] = target: T4, HeLa cell extract proteins (Homo sapiens, UniProt Q99436)
T4 construct: endogenous in cells; host or cells: HeLa cell extract
T4 sequence (Q99436 44-277): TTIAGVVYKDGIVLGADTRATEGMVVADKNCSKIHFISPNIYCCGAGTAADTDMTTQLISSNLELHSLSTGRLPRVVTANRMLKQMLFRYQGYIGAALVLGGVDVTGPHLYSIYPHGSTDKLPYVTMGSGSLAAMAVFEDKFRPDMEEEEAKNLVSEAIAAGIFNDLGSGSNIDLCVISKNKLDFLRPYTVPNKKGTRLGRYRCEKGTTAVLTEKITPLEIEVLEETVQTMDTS

[5] = target: T5, HeLa cell extract proteins (Homo sapiens, UniProt P42345)
T5 construct: endogenous in cells; host or cells: HeLa cell extract

[6] = target: T6, HeLa cell extract proteins (Homo sapiens, UniProt O95816)
T6 construct: endogenous in cells; host or cells: HeLa cell extract
T6 sequence (O95816 whole entry): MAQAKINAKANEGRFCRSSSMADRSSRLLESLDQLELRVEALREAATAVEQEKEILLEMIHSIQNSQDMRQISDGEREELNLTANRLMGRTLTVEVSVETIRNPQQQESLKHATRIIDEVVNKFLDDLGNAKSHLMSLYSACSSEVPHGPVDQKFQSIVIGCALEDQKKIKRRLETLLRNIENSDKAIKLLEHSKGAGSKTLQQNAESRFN

[7] = target: T7, HeLa cell extract proteins (Homo sapiens, UniProt Q15392)
T7 construct: endogenous in cells; host or cells: HeLa cell extract
T7 sequence (Q15392 23-516): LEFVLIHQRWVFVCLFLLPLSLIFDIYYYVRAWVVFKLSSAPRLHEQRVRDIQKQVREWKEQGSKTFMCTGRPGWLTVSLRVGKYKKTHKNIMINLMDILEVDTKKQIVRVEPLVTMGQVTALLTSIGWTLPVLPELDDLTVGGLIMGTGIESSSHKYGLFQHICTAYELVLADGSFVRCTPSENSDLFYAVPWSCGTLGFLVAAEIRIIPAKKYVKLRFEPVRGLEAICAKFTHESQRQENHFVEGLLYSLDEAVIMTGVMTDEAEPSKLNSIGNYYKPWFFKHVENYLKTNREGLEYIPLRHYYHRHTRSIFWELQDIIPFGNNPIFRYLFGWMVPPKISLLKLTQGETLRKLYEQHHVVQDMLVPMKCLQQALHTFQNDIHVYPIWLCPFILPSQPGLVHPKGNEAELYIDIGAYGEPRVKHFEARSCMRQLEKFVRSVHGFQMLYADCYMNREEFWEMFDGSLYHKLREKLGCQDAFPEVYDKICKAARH

[8] = target: T8, HeLa cell extract proteins (Homo sapiens, UniProt Q9HB07)
T8 construct: endogenous in cells; host or cells: HeLa cell extract
T8 sequence (Q9HB07 48-376): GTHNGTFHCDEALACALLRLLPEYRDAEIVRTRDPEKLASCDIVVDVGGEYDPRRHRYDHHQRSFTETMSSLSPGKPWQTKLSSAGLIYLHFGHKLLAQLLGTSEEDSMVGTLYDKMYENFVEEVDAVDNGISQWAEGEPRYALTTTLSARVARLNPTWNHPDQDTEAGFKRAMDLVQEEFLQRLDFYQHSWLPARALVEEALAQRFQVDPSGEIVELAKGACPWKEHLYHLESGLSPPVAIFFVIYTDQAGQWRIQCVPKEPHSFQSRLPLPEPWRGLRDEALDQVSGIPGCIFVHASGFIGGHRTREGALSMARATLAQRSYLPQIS

[9] = captured protein C12ORF10, HeLa
[10] = HeLa, protein PSMB7 ([…] BETA TYPE 7 PRECURSOR)
[11] = HeLa, captured protein C12ORF10
[12] = HeLa, protein DHCR24 (24-DEHYDROC[…] PRECURSOR)

| Structure (SMILES) | fold changes relative to vehicle control ([1]; protein CCT2, HeLa) | fold changes relative to vehicle control ([2]; protein TXNRD1, HeLa) | fold changes relative to vehicle control ([3]; captured protein JTV1, HeLa) | fold changes relative to vehicle control ([4]; protein PSMB7, HeLa) | fold changes relative to vehicle control ([5]; captured protein mTOR, HeLa) | fold changes relative to vehicle control ([6]; captured protein BAG2, HeLa) | fold changes relative to vehicle control ([7]; protein DHCR24, HeLa) | fold changes relative to vehicle control [8, 9] | fold changes relative to vehicle control ([1]; HeLa, protein CCT2) | fold changes relative to vehicle control ([2]; HeLa, captured protein TXNRD1) | fold changes relative to vehicle control ([3]; HeLa, captured protein JTV1) | fold changes relative to vehicle control [4, 10] | fold changes relative to vehicle control ([5]; HeLa, captured protein mTOR) | fold changes relative to vehicle control ([6]; HeLa, protein BAG2) | fold changes relative to vehicle control [8, 11] | further results |
| --- | --- | --- | --- | --- | --- | --- | --- | --- | --- | --- | --- | --- | --- | --- | --- | --- |
| CCCCCCOc1cccc(Cc2cnc(N)nc2N)c1 [compound 2] | 1.75 | 1.44 | 1.16 | 1.28 | 1.1 | 1.15 | 0.83 | 1.06 |  |  |  |  |  |  |  |  |
| NCCOCCOCC(=O)Nc1nc2ncc(CNc3ccc(C(=O)NC(CCC(=O)O)C(=O)O)cc3)nc2c(=O)[nH]1 (centres unmarked) [compound 6] |  |  |  |  |  |  |  |  | 1.23 | 1.16 | 0.89 | 2.16 | 1.15 | 0.97 | 0.78 | fold changes relative to vehicle control ([7]; HeLa, protein DHCR24 (24-DEHYDROCHOLESTEROL REDUCTASE PRECURSOR)): 0.88 |
| CCCCCCOc1ccc(Cc2cnc(N)nc2N)cc1 [compound 1] | 1.33 | 1.27 | 1.04 | 1.17 | 0.89 | 0.9 | 1.03 | 1.05 |  |  |  |  |  |  |  |  |
| Nc1nc2c(c(=O)[nH]1)N(C=O)C(CNc1ccc(C(=O)N[C@@H](CCC(=O)O)C(=O)O)cc1)CN2 (some centres unmarked) [LEU, leucovorin] |  |  |  |  |  |  |  |  | 1.05 | 1.18 | 1.04 | 1.19 | 1.05 | 0.96 | 1.08 | fold changes relative to vehicle control [7, 12]: 1.13 |
| NCCCNc1ccc(C(=O)NC(CCC(=O)O)C(=O)O)cc1 (centres unmarked) [compound 7] |  |  |  |  |  |  |  |  | 0.95 | 1.11 | 0.85 | 1.08 | 1.2 | 0.97 | 1.12 | fold changes relative to vehicle control [7, 12]: 1.03 |
| Nc1nc2[nH]cc(CCc3ccc(C(=O)N[C@@H](CCC(=O)O)C(=O)O)cc3)c2c(=O)[nH]1 [PTX, pemetrexed] |  |  |  |  |  |  |  |  |  |  |  |  |  |  |  | fold changes relative to vehicle control [1]: 1.11; fold changes relative to vehicle control [2]: 1.16; fold changes relative to vehicle control [3]: 0.9; fold changes relative to vehicle control [4]: 1.6; fold changes relative to vehicle control [5]: 0.99; fold changes relative to vehicle control [6]: 0.95; fold changes relative to vehicle control [7]: 1.05; fold changes relative to vehicle control [8]: 0.33 |
| Nc1nc2cccc(-c3ccccc3)c2n1Cc1ccc(Cl)c(Cl)c1 [compound 3] | 1.13 | 1.05 | 0.89 | 0.99 | 1.01 | 0.88 | 1.02 | 1.04 |  |  |  |  |  |  |  |  |
